From patent publication US6936585B2, “Corticotropin releasing factor 2 receptor agonists” (priority 2002, dated 2005)
Peptide text beside a SMILES is read from it.

Experiments:
CRF1R = target: T1, CRF1R (Homo sapiens, UniProt P34998); test: CRF1R agonist activation (EC50 / Emax), called comparative CRF binding; format: cell-based; conditions: for EC50: read-out: CRF1R EC50; for Emax: read-out: CRF1R Emax
T1 sequence (P34998 24-415): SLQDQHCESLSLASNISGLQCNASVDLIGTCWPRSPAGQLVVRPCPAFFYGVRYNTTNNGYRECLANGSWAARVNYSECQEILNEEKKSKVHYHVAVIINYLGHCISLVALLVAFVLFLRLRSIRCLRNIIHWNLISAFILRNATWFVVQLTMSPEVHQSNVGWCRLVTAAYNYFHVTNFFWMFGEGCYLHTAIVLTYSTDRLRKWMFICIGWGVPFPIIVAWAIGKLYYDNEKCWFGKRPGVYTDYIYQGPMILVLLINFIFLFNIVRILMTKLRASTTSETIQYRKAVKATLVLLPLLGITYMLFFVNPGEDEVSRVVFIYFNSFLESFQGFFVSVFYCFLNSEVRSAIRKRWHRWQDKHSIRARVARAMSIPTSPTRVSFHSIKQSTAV
Outline: (§1)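 Agonism is scored from cAMP rise, assayed in lysates or through CRE-driven reporter expression, after peptide contact with cells bearing human CRF2R or CRF1R, compared against vehicle-treated cells.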

CRF2R = target: T2, CRF2R (Homo sapiens, UniProt Q13324); test: CRF2R agonist activation (EC50 / Emax), called comparative CRF binding; format: cell-based; conditions: for EC50: read-out: CRF2R EC50; for Emax: read-out: CRF2R Emax
T2 sequence (Q13324 1-411): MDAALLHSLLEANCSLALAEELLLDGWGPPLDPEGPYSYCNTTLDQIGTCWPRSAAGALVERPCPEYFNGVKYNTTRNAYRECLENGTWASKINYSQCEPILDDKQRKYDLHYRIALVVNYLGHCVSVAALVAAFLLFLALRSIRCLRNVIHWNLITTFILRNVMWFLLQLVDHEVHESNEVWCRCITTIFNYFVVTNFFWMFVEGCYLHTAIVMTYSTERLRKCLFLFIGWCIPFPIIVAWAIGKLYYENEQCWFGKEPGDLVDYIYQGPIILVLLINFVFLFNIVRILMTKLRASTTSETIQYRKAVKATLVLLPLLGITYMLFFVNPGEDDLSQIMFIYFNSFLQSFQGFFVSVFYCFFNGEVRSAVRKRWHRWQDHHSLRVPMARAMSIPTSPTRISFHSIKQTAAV
Outline: as §1

| Compound | EC50 (CRF1R) [nM] | Emax (CRF1R) [%] | EC50 (CRF2R) [nM] | Emax (CRF2R) [%] |
| --- | --- | --- | --- | --- |
| CC[C@H](C)[C@H](NC(=O)[C@H](CCCNC(=N)N)NC(=O)[C@H](C)NC(=O)[C@H](CC(N)=O)NC(=O)[C@H](CCC(N)=O)NC(=O)[C@H](CCC(=O)O)NC(=O)[C@H](C)NC(=O)[C@H](CCCNC(=N)N)NC(=O)[C@H](CCC(=O)O)NC(=O)[C@H](CCCNC(=N)N)NC(=O)[C@H](CCC(N)=O)NC(=O)[C@H](CO)NC(=O)[C@H](CCC(N)=O)NC(=O)[C@@H](NC(=O)[C@H](CCCCN)NC(=O)[C@H](CCC(=O)O)NC(=O)[C@H](CC(C)C)NC(=O)[C@H](CCC(=O)O)NC(=O)[C@H](CC(C)C)NC(=O)[C@H](CC(C)C)NC(=O)[C@@H](NC(=O)[C@H](CCCNC(=N)N)NC(=O)[C@H](CC(C)C)NC(=O)[C@H](CC(C)C)NC(=O)[C@@H](NC(=O)[C@H](CC(C)C)NC(=O)[C@@H]1CCCN1C(=O)[C@H](CC(C)C)NC(=O)[C@H](CC(=O)O)NC(=O)[C@@H](NC(=O)[C@H](CO)NC(=O)[C@H](CC(C)C)NC(=O)[C@H](CO)NC(=O)[C@@H]1CCCN1C(=O)[C@H](CC(N)=O)NC(=O)[C@@H](N)CC(=O)O)[C@@H](C)CC)[C@@H](C)CC)[C@@H](C)O)[C@@H](C)O)C(=O)N[C@@H](Cc1ccccc1)C(=O)N[C@@H](C)C(=O)N[C@@H](CCCNC(=N)N)C(=O)N[C@H](C(N)=O)C(C)C [compound 335] (H-DNPSLSIDLPLILLRTLLELEKTQSQRERAEQNARIFARV-NH2; N-terminus assumed) | ≥ 1000 | 49.5 | 28 | 91 |
| CC[C@H](C)[C@H](NC(=O)[C@H](CCCNC(=N)N)NC(=O)[C@H](C)NC(=O)[C@H](CC(N)=O)NC(=O)[C@H](CCC(N)=O)NC(=O)[C@H](CCC(=O)O)NC(=O)[C@H](C)NC(=O)[C@H](CCCNC(=N)N)NC(=O)[C@H](CCC(=O)O)NC(=O)[C@H](CCCNC(=N)N)NC(=O)[C@H](CCC(N)=O)NC(=O)[C@H](CO)NC(=O)[C@H](CCC(N)=O)NC(=O)[C@@H](NC(=O)[C@H](CCCCN)NC(=O)[C@H](CCC(=O)O)NC(=O)[C@H](CC(C)C)NC(=O)[C@H](CCC(=O)O)NC(=O)[C@H](CC(C)C)NC(=O)[C@H](CC(C)C)NC(=O)[C@@H](NC(=O)[C@H](CCCNC(=N)N)NC(=O)[C@H](CC(C)C)NC(=O)[C@H](CC(C)C)NC(=O)[C@H](Cc1ccccc1)NC(=O)[C@H](CC(C)C)NC(=O)[C@@H]1CCCN1C(=O)[C@H](CC(C)C)NC(=O)[C@H](CC(=O)O)NC(=O)[C@@H](NC(=O)[C@H](CO)NC(=O)[C@H](CC(C)C)NC(=O)[C@H](CO)NC(=O)[C@@H]1CCCN1C(=O)[C@H](CC(N)=O)NC(=O)[C@@H](N)CC(=O)O)[C@@H](C)CC)[C@@H](C)O)[C@@H](C)O)C(=O)N[C@@H](Cc1ccccc1)C(=O)N[C@@H](CC(=O)O)C(=O)N[C@@H](CCCNC(=N)N)C(=O)N[C@H](C(N)=O)C(C)C [compound 336] (H-DNPSLSIDLPLFLLRTLLELEKTQSQRERAEQNARIFDRV-NH2; N-terminus assumed) |  | 59.9 |  | 100 |
| CC[C@H](C)[C@H](NC(=O)[C@H](CCCNC(=N)N)NC(=O)[C@H](C)NC(=O)[C@H](CC(N)=O)NC(=O)[C@H](CCC(N)=O)NC(=O)[C@H](CCC(=O)O)NC(=O)[C@H](C)NC(=O)[C@H](CCCNC(=N)N)NC(=O)[C@H](CCC(=O)O)NC(=O)[C@H](CCCNC(=N)N)NC(=O)[C@H](CCC(N)=O)NC(=O)[C@H](CO)NC(=O)[C@H](CCC(N)=O)NC(=O)[C@@H](NC(=O)[C@H](CCCCN)NC(=O)[C@H](CCC(=O)O)NC(=O)[C@H](CC(C)C)NC(=O)[C@H](CCC(=O)O)NC(=O)[C@H](CC(C)C)NC(=O)[C@H](CC(C)C)NC(=O)[C@@H](NC(=O)[C@H](CCCNC(=N)N)NC(=O)[C@H](CC(C)C)NC(=O)[C@H](CC(C)C)NC(=O)[C@@H](NC(=O)[C@H](CC(C)C)NC(=O)[C@@H]1CCCN1C(=O)[C@H](CC(C)C)NC(=O)[C@H](CC(=O)O)NC(=O)[C@@H](NC(=O)[C@H](CO)NC(=O)[C@H](CC(C)C)NC(=O)[C@H](CO)NC(=O)[C@@H]1CCCN1C(=O)[C@H](CC(N)=O)NC(=O)[C@@H](N)CC(=O)O)[C@@H](C)CC)[C@@H](C)CC)[C@@H](C)O)[C@@H](C)O)C(=O)N[C@@H](Cc1ccccc1)C(=O)N[C@@H](CC(=O)O)C(=O)N[C@@H](CCCNC(=N)N)C(=O)N[C@H](C(N)=O)C(C)C [compound 337] (H-DNPSLSIDLPLILLRTLLELEKTQSQRERAEQNARIFDRV-NH2; N-terminus assumed) | ≥ 1000 | 36.5 | 23.9 | 86.7 |
| CC[C@H](C)[C@H](NC(=O)[C@H](CCCNC(=N)N)NC(=O)[C@H](C)NC(=O)[C@H](CC(N)=O)NC(=O)[C@H](CCC(N)=O)NC(=O)[C@H](CCC(=O)O)NC(=O)[C@H](C)NC(=O)[C@H](CCCNC(=N)N)NC(=O)[C@H](CCC(=O)O)NC(=O)[C@H](CCCNC(=N)N)NC(=O)[C@H](CCC(N)=O)NC(=O)[C@H](CO)NC(=O)[C@H](CCC(N)=O)NC(=O)[C@@H](NC(=O)[C@H](CCCCN)NC(=O)[C@H](CCC(=O)O)NC(=O)[C@H](CC(C)C)NC(=O)[C@H](CCC(=O)O)NC(=O)[C@H](CC(C)C)NC(=O)[C@H](CC(C)C)NC(=O)[C@@H](NC(=O)[C@H](CCCNC(=N)N)NC(=O)[C@H](CC(C)C)NC(=O)[C@H](CC(C)C)NC(=O)[C@H](CC(C)C)NC(=O)[C@H](CC(C)C)NC(=O)[C@@H]1CCCN1C(=O)[C@H](CC(C)C)NC(=O)[C@H](CC(=O)O)NC(=O)[C@@H](NC(=O)[C@H](CO)NC(=O)[C@H](CC(C)C)NC(=O)[C@H](CO)NC(=O)[C@@H]1CCCN1C(=O)[C@H](CC(N)=O)NC(=O)[C@@H](N)CC(=O)O)[C@@H](C)CC)[C@@H](C)O)[C@@H](C)O)C(=O)N[C@@H](Cc1ccccc1)C(=O)N[C@@H](CC(=O)O)C(=O)N[C@@H](CCCNC(=N)N)C(=O)N[C@H](C(N)=O)C(C)C [compound 338] (H-DNPSLSIDLPLLLLRTLLELEKTQSQRERAEQNARIFDRV-NH2; N-terminus assumed) |  | 41.1 |  | 77.5 |
| CC[C@H](C)[C@H](NC(=O)[C@H](C)NC(=O)[C@H](CC(N)=O)NC(=O)[C@H](CCC(N)=O)NC(=O)[C@H](CCC(=O)O)NC(=O)[C@H](C)NC(=O)[C@H](CCCNC(=N)N)NC(=O)[C@H](CCC(=O)O)NC(=O)[C@H](CCCNC(=N)N)NC(=O)[C@H](CCC(N)=O)NC(=O)[C@H](CO)NC(=O)[C@H](CCC(N)=O)NC(=O)[C@@H](NC(=O)[C@H](CCCNC(=N)N)NC(=O)[C@H](C)NC(=O)[C@H](CC(C)C)NC(=O)[C@H](CCC(=O)O)NC(=O)[C@H](CC(C)C)NC(=O)[C@H](CC(C)C)NC(=O)[C@@H](NC(=O)[C@H](CCCNC(=N)N)NC(=O)[C@H](CC(C)C)NC(=O)[C@H](CC(C)C)NC(=O)[C@H](Cc1ccc(O)cc1)NC(=O)[C@H](CCC(N)=O)NC(=O)[C@@H]1CCCN1C(=O)[C@H](CC(C)C)NC(=O)[C@H](CC(=O)O)NC(=O)[C@@H](NC(=O)[C@H](CO)NC(=O)[C@H](CC(C)C)NC(=O)[C@H](CO)NC(=O)[C@@H]1CCCN1C(=O)[C@H](CC(N)=O)NC(=O)[C@@H](N)CC(=O)O)[C@@H](C)CC)[C@@H](C)O)[C@@H](C)O)C(=O)N[C@H](C(=O)N[C@@H](Cc1ccccc1)C(=O)N[C@@H](C)C(=O)N[C@@H](CO)C(=O)N[C@H](C(N)=O)C(C)C)[C@@H](C)CC [compound 339] (H-DNPSLSIDLPQYLLRTLLELARTQSQRERAEQNAIIFASV-NH2) |  | 13.2 |  | 47.9 |
